Data as given in patent US20110144345A1, “SULFOXYIMINO-SUBSTITUTED BENZOYL DERIVATIVE AND HERBICIDE” (NIPPON SODA CO., LTD., priority 2008, published 2011).

How the values were obtained:
Scirpus juncoides = experiment: Paddy pot test, herbicidal effect on Scirpus juncoides; type: in vivo; set-up: scale not given here; details: Screening, 63 g/ha, examined after 3 weeks
Description: (§1) Plastic pots having an area of 100 cm^2 and a depth of 10 cm were filled with paddy soil which is puddled by adding water, and seeds of Echinochloa crus-galli and Scirpus juncoides were planted in the pots. After seeding, rice plants at the 2.5-leaf stage were transplanted and the pots were filled with water. The rice plants were grown in a greenhouse. […] The herbicidal effects and harmful effects on the rice plants were examined after 3 weeks. Herbicidal effects were examined according to the examination criteria described below and were represented by the herbicidal index. [table] […] [formula]

rice plants = experiment: Paddy pot test, harmful effects on transplanted rice plants; type: in vivo; set-up: scale not given here; details: Screening, 63 g/ha, applied at Echinochloa crus-galli 1.5-leaf stage, examined after 3 weeks
Description: as §1

Echinochloa crus-galli = experiment: Paddy pot test, herbicidal effect on Echinochloa crus-galli; type: in vivo; set-up: scale not given here; details: Screening, 63 g/ha, applied at 1.5-leaf stage, examined after 3 weeks
Description: as §1

Row | Compound | Scripus juncoides (herbicidal index) (Scirpus juncoides) | melting point [°C] | Rice (harmful effects on the rice plants, index) (rice plants) | Echinochloa crus-galli (herbicidal index) (Echinochloa crus-galli)
1 | Cn1ncc(C(=O)c2ccc(OC(F)F)c(N=S3(=O)CCCCC3)c2Cl)c1O [Example 181] | 9 | 158 to 161 | 0 | 10
2 | CSC(=O)Oc1c(C(=O)c2cccc(N=S3(=O)CCCCC3)c2C)cnn1C [Example 193] | 7 | 149 to 151 | 0 | 6
3 | COc1ccc(C(=O)c2cnn(C)c2[O-])c(Cl)c1N=S1(=O)CCCCC1.[Na+] [Example 115] | 8 | 224 to 226 | 0 | 10
4 | COc1ccc(C(=O)c2c(C)nn(C)c2O)c(Cl)c1N=S1(=O)CCCCC1 [Example 250] | 8 | 138 to 140 | 0 | 7
5 | COc1ccc(C(=O)C2=C(O)CCCC2=O)c(Cl)c1N=S(C)(C)=O [Example 149] | 6 | 150 to 152 | 0 | 5
6 | COc1ccc(C(=O)c2cnn(C)c2O)c(Cl)c1N=S(C)(C)=O [Example 150] | 8 | 164 to 166 | 0 | 5
7 | CCn1ncc(C(=O)c2ccc(C#N)c(N=S3(=O)CCCCC3)c2Cl)c1O [Example 187] | 5 | 159 to 161 | 0 | 10
8 | CCn1ncc(C(=O)c2ccc(OC)c(N=S3(=O)CCCC3)c2Cl)c1O [Example 128] | 8 | 171 to 173 | 0 | 10
9 | Cc1c(N=S2(=O)CCCCC2)cccc1C(=O)c1cnn(C)c1O [Example 191] | 7 | 166 to 168 | 0 | 6
10 | COc1c(N=S2(=O)CCCCC2)cccc1C(=O)c1cnn(C)c1O [Example 131] | 8 | 121 to 123 | 0 | 6
11 | CCS(=O)(CC)=Nc1c(OC)ccc(C(=O)c2cnn(C)c2O)c1Cl [Example 247] | 9 | 165 to 168 | 0 | 10
12 | COc1ccc(C(=O)c2cnn(C)c2O)c(F)c1N=S1(=O)CCCCC1 [Example 112] | 8 | 107 to 109 | 0 | 8
13 | COc1ccc(C(=O)C2=C(O)CCCC2=O)c(Cl)c1N=S1(=O)CCCC1 [Example 127] | 8 | 153 to 155 | 0 | 8
14 | COc1ccc(C(=O)c2cnn(C)c2O)c(Cl)c1N=S(C)(=O)C(C)C (stereo not shown) [Example 210] | 9 | 167 to 169 | 0 | 6
15 | COc1ccc(C(=O)c2cnn(C)c2O)c(OC)c1N=S1(=O)CCOCC1 [Example 133] | 7 | 72 to 74 | 0 | 6
16 | COc1ccc(C(=O)c2cnn(C)c2O)c(Cl)c1N=S1(=O)CCCC1C (stereo not shown) [Example 218] | 7 | 84 to 86 | 0 | 6
